In patent US20260185992A1, “METHODS FOR SELECTING AND TREATING PATIENTS WITH RETINAL DISEASE BASED ON COMPLEMENT PATHWAY HYPERACTIVITY” (Oak Bay Biosciences Inc., priority 2024, published 2026):
Like-named read-outs stand apart in the source and are kept apart here.

Assays:
[1] = test system: patients with ocular disease (Geographic Atrophy, AMD); conditions: cited from earlier work; for benefit in trials: GA trials, systemic or IVT administered agents; for Status (clinical trial outcome): Table 1, ocular disease indication
[2] = FDA prescribing information; cited from earlier work
C5 = C5 (Homo sapiens, UniProt P01031); conditions: report from publications; read-out: affinity for C5; cited from earlier work
GA patients [3] = conditions: 2 mg q4w, cited from earlier work
Bb in aqueous humor [4] = assay: CHROMA/SPECTRI Phase 3 biomarker substudy: response to lampalizumab by aqueous humor Bb; type: in vivo, human; conditions: Month 6
Description: Patient level data for patients in the sham, q4w, and […] lampalizumab Phase 3 biomarker study, as reported by Edmonds et al (Edmonds R. et al., “Complement pathway Inhibition by Lampalizumab: Analysis of Data From Chroma and Spectri Phase III Clinical Trials.” Ophthalmol Sci. 2023; 3 (3): 100286. Published 2023 Feb. 13), in Supplemental FIG. 6 of Bb (ng/mL) in aqueous humor was measured and converted into numerical data points. To verify accuracy of the plotted data points, mean and standard deviation was calculated using the plotted data and compared to the reported mean and standard deviation in Edmonds et al. Values were in good agreement.
(§1) In addition to the overall efficacy analyses, a biomarker sub study was conducted with about 100 patients (of which 33 from sham, q4w, q6w) with biomarker sampling at baseline and Month 6. Multiple complement factors were measured, including CFB, Bb, FD, C3, C3b/iC3b/C3d, C4, C4b/C4c. Results were described in Edmonds et al. Individual data points for the measured ocular proteins were reported in figures (Edmonds at FIG. 4 and Supplemental FIGS. 4-10) in addition to cohort level metrics (baseline and efficacy at 6 months).
In Edmonds, the ratio of Bb/CFB was used to assess complement activity and concluded that dosing with higher concentrations or more frequent dosing would not result in greater inhibitor of the complement pathway as there is no meaningful correlation between Bb: CFB ratio and percent change in aqueous humor from baseline to week 24.
To reassess the data & results described in Edmonds according to the categorization described herein, the data points for Bb at baseline and Month 6 in Supplemental FIG. 6 were converted into numerical values based on measurement relative to the axes and categorized as follows:
• 1. […] Ineffective lampalizumab administration-Hyper baseline, hyper at Month 6 and <50% reduction in Bb at Month 6 from baseline Bb • 3.

Bb in aqueous humor [5] = conditions: essentially all individual patients treated, q4w and q6w (Edmonds at FIG. 4B); cited from earlier work
[6] = test system: patients with geographic atrophy; assay: CHROMA + SPECTRI Phase 3 trials: change in GA area from baseline; type: in vivo, human
Description: The CHROMA & SPECTRI Phase 3 trials evaluated lampalizumab (anti-fD fab) intravitreally administered IVT 10 mg at q4w or q6w intervals compared to sham (untreated) controls. Both studies had identical designs, and each enrolled a total of about 900 patients (300 per cohort, lampa q4w, lampa […], etc). The trial is described in Holz et al. (Holz F G et al. “Efficacy and Safety of Lampalizumab for Geographic Atrophy Due to Age-Related Macular Degeneration: Chroma and Spectri Phase 3 Randomized Clinical Trials”. JAMA Ophthalmol. 2018; 136 (6): 666-677)
as §1
As “control” prediction methodology, the pooled progression for sham, q4w, and q6w at 12 months as reported in Edmonds of the overall Phase 3 was divided by 2 to estimate the progression of a cohort of any patients at 6 months.

[7] = test system: patients with geographic atrophy; conditions: cited from earlier work
GA patients [8] = conditions: implication of FDA approved prescribing information; cited from earlier work
[9] = test system: complement component Ba in aqueous humor; assay: Real world SYFOVRE study: response category by aqueous humor Ba; type: in vivo, human
Description: (§2) Study Description: This study included GA anatomic (OCT, Specralis) & treatment administration data (treatment, injection date) and aqueous humor (AH) samples from 9 eyes of 5 patients with bilateral GA without CNV, treated with SYFOVRE® per USPI at a private retinal practice in the United States of America. The study was performed in accordance with the tenets of the Declaration of Helsinki and the Medical Research Involving Human Subjects Act (WMO) and was approved by the local Institutional Review Board. Written informed consent was obtained from all participants.
Assessment of biomarkers of AH concentration of complement component Ba. Aqueous humor sampling of the eyes was conducted by anterior chamber paracentesis using a 30-gauge needle attached to a 1-ml syringe. Samples of up to 150 μl were obtained at baseline (prior to first administration of SYFOVRE®) and after the first, second, or third administration of SYFOVRE®. Quantitative measurement of AH Ba was carried out using a direct capture immunoassay (Micro Vue; Qidel Corporation). Samples were transferred to sterile polypropylene tubes immediately after collection and stored at −80° C. until analysis was performed.
Categorization of eyes into hyper/homeo/hypo groups was performed: Hyper was ≥20 ng/mL Ba, Homeo was <20 to ≥10 ng/mL Ba, Hypo was <10 ng/mL Ba.
Categorization of response to SYFOVRE® based on biomarker criteria was performed.

[10] = test system: patients with bilateral GA; assay: FILLY Phase 2 study eye vs. fellow eye analysis; type: in vivo, human; conditions: baseline to month 12
Description: Apellis sponsored FILLY was a phase 2 trial evaluating efficacy of intravitreal pegcetacoplan complement C3 and C3b inhibitor on slowing GA progression, which included only one eye per participant in the treatment group.
A post hoc analysis of phase 2 FILLY trial data comparing study (treated monthly, treated every other month and sham-treated) and fellow (untreated) eyes in a split-person study design was performed and the results published (Fu et al, 2023, hereinafter “Fu”). This analysis included 288 eyes from 144 patients with bilateral GA from the FILLY phase 2 trial (Clinical Trials identifier: NCT02503332). Only patients with bilateral GA and without evidence of choroidal neovascularization in either eye were included. Patient study eyes were treated with sham injections or with pegcetacoplan monthly (PM) or every other month (PEOM) for 12 months. […] Fu specifically interpreted the data as showing “on an individual patient level, changes in GA area for the fellow eye exceeded those in the study eye for most patients in the pegcetacoplan treatment groups, while changes in the sham group approached randomness between study and fellow eyes.” Fu et al. (Fu D J et al., “Evaluating the Effects of C3 Inhibition on Geographic Atrophy Progression from Deep-Learning OCT Quantification: A Split-Person Study”. Ophthalmol Ther. 2023). […]

C3 = C3 (Homo sapiens, UniProt P01024); conditions: report from publications; read-out: affinity for C3; cited from earlier work
[11] = test system: patients with bilateral GA; conditions: FILLY post hoc analysis (Fu), 12 months; cited from earlier work
[12] = test system: eyes of patients with bilateral GA without CNV; assay: Real world SYFOVRE study: area of RPE loss by OCT; type: in vivo, human; conditions: post treatment (70 days)
Description: as §2
For each individual eye, assessment of GA progression between baseline and the measurement of the post treatment ocular proteomics was performed based on OCT images taken at the relevant visits (baseline and visits when AH sample taken). OCT analysis of retinal atrophy was performed using automated measurement of area of RPE loss, with a foveally centered, ETDRS matched analysis performed by RetinAI. Given variability in image centering and quality between visits, for a given eye, only those regions of the retina that had consistent OCT imaging & analysis coverage at each relevant timepoint were used to calculate change in area of retinal atrophy.

[13] = in vivo; cited from earlier work

C5, sequence (P01031 19-1676): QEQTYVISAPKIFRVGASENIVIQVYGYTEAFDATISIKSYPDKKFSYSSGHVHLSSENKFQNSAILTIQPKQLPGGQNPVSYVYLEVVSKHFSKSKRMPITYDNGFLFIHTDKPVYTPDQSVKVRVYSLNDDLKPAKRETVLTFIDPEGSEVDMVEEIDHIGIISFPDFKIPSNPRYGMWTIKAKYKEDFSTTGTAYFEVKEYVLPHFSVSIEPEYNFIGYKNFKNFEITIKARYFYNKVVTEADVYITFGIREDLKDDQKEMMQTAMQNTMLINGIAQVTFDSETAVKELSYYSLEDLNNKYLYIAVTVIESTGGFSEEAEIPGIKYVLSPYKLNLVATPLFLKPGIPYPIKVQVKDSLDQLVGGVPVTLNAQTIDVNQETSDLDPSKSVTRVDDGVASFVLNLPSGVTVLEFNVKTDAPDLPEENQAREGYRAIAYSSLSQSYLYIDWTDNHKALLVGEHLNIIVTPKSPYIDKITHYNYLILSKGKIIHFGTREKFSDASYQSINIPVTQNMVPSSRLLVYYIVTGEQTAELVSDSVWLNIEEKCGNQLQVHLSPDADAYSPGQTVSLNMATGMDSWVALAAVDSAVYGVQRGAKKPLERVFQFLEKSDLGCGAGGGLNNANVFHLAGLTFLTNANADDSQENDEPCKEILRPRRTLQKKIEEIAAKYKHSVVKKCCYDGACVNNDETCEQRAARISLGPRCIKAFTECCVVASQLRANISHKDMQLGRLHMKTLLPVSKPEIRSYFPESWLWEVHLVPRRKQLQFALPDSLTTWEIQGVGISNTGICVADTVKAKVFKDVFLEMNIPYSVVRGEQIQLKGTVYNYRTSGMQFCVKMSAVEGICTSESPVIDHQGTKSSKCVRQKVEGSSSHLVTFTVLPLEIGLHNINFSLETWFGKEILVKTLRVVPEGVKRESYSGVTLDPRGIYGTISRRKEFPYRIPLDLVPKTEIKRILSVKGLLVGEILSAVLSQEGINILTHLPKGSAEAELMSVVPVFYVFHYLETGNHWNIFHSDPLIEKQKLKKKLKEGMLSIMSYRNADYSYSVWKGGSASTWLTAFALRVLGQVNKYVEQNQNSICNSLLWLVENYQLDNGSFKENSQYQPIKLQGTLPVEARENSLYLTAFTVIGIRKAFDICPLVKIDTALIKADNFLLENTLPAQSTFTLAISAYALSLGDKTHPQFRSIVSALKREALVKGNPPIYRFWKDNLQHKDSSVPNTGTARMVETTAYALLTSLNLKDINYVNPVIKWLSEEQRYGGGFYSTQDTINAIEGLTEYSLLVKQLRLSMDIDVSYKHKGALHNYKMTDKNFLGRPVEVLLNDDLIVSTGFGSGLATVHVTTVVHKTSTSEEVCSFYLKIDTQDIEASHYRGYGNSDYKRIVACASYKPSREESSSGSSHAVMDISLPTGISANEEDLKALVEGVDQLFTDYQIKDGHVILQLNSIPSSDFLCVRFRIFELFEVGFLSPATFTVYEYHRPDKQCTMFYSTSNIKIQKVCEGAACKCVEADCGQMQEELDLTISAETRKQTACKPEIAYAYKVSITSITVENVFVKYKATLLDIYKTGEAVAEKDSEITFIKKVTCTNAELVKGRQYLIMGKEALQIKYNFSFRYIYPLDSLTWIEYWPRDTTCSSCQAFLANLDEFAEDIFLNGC
C3, sequence (P01024 23-1663): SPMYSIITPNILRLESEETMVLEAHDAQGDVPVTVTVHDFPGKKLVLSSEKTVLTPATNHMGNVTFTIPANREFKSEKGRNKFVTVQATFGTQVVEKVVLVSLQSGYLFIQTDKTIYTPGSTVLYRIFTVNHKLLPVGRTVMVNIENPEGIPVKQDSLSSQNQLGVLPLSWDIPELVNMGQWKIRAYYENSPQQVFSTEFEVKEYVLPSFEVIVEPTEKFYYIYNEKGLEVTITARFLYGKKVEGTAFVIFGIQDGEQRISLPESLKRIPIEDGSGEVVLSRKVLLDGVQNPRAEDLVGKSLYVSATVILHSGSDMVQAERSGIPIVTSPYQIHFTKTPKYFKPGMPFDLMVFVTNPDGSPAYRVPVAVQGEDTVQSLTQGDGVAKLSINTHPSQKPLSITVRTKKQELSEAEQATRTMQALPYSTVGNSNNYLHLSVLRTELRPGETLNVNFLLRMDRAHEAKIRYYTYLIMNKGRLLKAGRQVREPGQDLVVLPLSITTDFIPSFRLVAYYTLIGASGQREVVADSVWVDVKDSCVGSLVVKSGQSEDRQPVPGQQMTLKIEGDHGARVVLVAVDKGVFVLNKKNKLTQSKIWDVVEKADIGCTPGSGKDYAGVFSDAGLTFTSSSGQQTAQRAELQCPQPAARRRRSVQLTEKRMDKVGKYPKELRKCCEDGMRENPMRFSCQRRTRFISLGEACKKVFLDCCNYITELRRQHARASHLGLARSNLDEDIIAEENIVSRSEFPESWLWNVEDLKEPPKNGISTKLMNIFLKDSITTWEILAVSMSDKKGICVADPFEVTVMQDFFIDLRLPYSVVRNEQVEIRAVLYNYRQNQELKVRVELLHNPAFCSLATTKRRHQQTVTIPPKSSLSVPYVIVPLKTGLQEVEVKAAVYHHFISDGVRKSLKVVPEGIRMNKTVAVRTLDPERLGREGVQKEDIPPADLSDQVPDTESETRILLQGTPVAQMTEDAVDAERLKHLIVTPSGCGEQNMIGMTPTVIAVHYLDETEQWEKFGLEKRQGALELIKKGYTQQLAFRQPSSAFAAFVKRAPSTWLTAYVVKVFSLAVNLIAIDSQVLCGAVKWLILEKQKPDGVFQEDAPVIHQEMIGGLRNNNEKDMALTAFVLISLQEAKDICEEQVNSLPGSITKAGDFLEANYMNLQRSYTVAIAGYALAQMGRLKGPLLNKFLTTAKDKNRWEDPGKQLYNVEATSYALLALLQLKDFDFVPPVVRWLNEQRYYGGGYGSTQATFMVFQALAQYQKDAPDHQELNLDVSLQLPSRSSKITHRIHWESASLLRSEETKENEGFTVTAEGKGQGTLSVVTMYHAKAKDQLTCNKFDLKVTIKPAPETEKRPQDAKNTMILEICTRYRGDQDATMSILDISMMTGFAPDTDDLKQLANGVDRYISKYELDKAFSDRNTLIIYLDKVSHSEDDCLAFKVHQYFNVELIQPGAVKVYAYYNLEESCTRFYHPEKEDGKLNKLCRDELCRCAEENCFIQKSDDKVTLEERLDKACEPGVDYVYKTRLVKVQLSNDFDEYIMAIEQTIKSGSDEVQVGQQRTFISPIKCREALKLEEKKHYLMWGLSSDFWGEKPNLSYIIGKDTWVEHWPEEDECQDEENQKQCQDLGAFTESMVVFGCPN

In the case of `[2H]C([2H])([2H])C(/C=C/C=C(C)/C=C/C1=C(C)CCCC1(C)C)=C\COC(C)=O` [Alkeus], the benefit in trials [1] is given as “failed to show benefit”.

For `CC(=O)c1nn(CC(=O)N2C[C@H](F)C[C@H]2C(=O)Nc2cccc(Br)n2)c2ccc(-c3cnc(C)nc3)cc12` [danicopan], the benefit in trials [1] is listed as “failed to show benefit”.

For avacincaptad pegol [IZERVAY®], the “geometric mean half-life of elimination (t1/2)” value [2] is listed as 288 h, the Kd (C5) is listed as about 3 nM and the “reduction in mean rate of GA growth vs. sham at 12 months” value (GA patients [3]; GATHER 1) is listed as 27.4%. The “reduction in mean rate of GA growth vs. sham at 12 months” value (GA patients [3]; GATHER 2) was 14%.

For “lampalizumab: anti-fD fab, intravitreally administered 10 mg at q4w or q6w”, the benefit in trials [1] is listed as “failed to show benefit”, the “Status (clinical trial outcome)” value [1] is listed as “failed to meet” and the “Post treatment response: Effective (number of eyes)” value (Bb in aqueous humor [4]; Q4w, 35 eyes, 14 hyper) is listed as 6. For the same molecule, the “Of Hyper; Effective” value (Bb in aqueous humor [4]; Q4w) was 43%, the “Post treatment response: Effective (number of eyes)” value (Bb in aqueous humor [4]; Q6w, 32 eyes, 10 hyper) was 2 and the “Of Hyper; Effective” value (Bb in aqueous humor [4]; Q6w) was 20%. For the same molecule, the “Bb/CFB in aqueous humor” value (Bb in aqueous humor [5]) was “decreases in Bb/CFB”, the “Change in GA area from baseline: (Edmonds et al) Biomarker pooled cohort at 48 w divided by 2” value ([6]; Q4w) was 1.08 and the “Change in GA area from baseline: CHROMA + SPECTRIA Pooled topline extrapolate to 24 w” value ([6]; Q4w) was 1.027. The “Change in GA area from baseline: (Edmonds et al) Biomarker pooled cohort at 48 w divided by 2” value ([6]; Q6w) was 1.03, the “Change in GA area from baseline: CHROMA + SPECTRIA Pooled topline extrapolate to 24 w” value ([6]; Q6w) was 1.028 and the “Change in GA area from baseline: (Edmonds et al) Biomarker pooled cohort at 48 w” value ([7]; Q4w) was 2.16. The “Change in GA area from baseline: Actual Data from (Edmonds) Biomarker pooled cohort at 24 w” value ([7]; Q4w) was 1.0, the “Change in GA area from baseline: CHROMA + SPECTRI Pooled topline at 48 weeks” value ([7]; Q4w) was 2.054 and the “Change in GA area from baseline: (Edmonds et al) Biomarker pooled cohort at 48 w” value ([7]; Q6w) was 2.06. For the same molecule, the “Change in GA area from baseline: Actual Data from (Edmonds) Biomarker pooled cohort at 24 w” value ([7]; Q6w) was 1.04 and the “Change in GA area from baseline: CHROMA + SPECTRI Pooled topline at 48 weeks” value ([7]; Q6w) was 2.055.

In the case of pegcetacoplan [SYFOVRE®], the “expected average efficacy, slowing for all indicated GA patients” value (GA patients [8]) is given as 20%, the “Response Category” value ([9]; Eye ID 001, OD, baseline category Hyper) is given as “Effective Complement Inhibition” and the “Response Category” value ([9]; Eye ID 002, OS, baseline category Hypo) is given as “Not”. The “Response Category” value ([9]; Eye ID 003, OD, baseline category Hyper) was “Not”, the “Response Category” value ([9]; Eye ID 004, OS, baseline category Hyper) was “Not” and the “Response Category” value ([9]; Eye ID 005, OD, baseline category Homeo) was “Not”. For the same molecule, the “Response Category” value ([9]; Eye ID 006, OS, baseline category Homeo) was “Not”, the “Response Category” value ([9]; Eye ID 007, OD, baseline category Hypo) was “Not” and the “Response Category” value ([9]; Eye ID 008, OS, baseline category Hypo) was “Not”. For the same molecule, the “Response Category” value ([9]; Eye ID 009, OD, baseline category Hypo) was “Not”, the “>=50% slowing study vs. fellow, %” value ([10]; PEOM (every other month), 35 eyes) was 20% and the “>=50% slowing study vs. fellow, %” value ([10]; PM (monthly), 36 eyes) was 53%. For the same molecule, the Kd (C3) was 15 nM, the “spatial GA progression compared to untreated fellow eyes” value [11] was “reduction in spatial GA progression” and the “RPE depletion area post treatment” value ([12]; Eye ID 001, OD, hyper baseline, effective complement inhibition, baseline 6.57 mm^2) was 6.45 mm^2. The “RPE depletion area post treatment” value ([12]; Eye ID 002, OS, hypo baseline, baseline 5.8 mm^2) was 6.75 mm^2 and the “geometric mean half-life of elimination (t1/2)” value [13] was 108 h.

B1: Tesidolumab: an antibody vs. C5 (antibody, chains of the INN, looked up, V domains shown)
VH: EVQLVQSGAEVKKPGSSVKVSCKASGGTFSSYAISWVRQAPGQGLEWMGGIGPFFGTANYAQKFQGRVTITADESTSTAYMELSSLRSEDTAVYYCARDTPYFDYWGQGTLVTVSS
VL: SYELTQPLSVSVALGQTARITCSGDSIPNYYVYWYQQKPGQAPVLVIYDDSNRPSGIPERFSGSNSGNTATLTISRAQAGDEADYYCQSFDSSLNAEVFGGGTKLTVL
In the case of B1, the “Status (clinical trial outcome)” value [1] is listed as “Phase II failed”.
